Measurements reported in patent US8338368B2 (priority 2005, dated 2012).
Read-outs that look alike come from different tables or passages of the source. Blank lines part the entries; values can stand above or below the substance they belong to. Ends that are not written are not given here.

Assays:
[1] = biological target: Glucagon Receptor (Homo sapiens, UniProt P47871); experiment: Functional assay, cAMP synthesis (luciferase reporter), glucagon receptor
[2] = pH 7
[3] = biological target: GLP-1 Receptor (Homo sapiens, UniProt P43220); experiment: cell-based
Chain of GLP-1 Receptor (P43220 24-463, species assumed): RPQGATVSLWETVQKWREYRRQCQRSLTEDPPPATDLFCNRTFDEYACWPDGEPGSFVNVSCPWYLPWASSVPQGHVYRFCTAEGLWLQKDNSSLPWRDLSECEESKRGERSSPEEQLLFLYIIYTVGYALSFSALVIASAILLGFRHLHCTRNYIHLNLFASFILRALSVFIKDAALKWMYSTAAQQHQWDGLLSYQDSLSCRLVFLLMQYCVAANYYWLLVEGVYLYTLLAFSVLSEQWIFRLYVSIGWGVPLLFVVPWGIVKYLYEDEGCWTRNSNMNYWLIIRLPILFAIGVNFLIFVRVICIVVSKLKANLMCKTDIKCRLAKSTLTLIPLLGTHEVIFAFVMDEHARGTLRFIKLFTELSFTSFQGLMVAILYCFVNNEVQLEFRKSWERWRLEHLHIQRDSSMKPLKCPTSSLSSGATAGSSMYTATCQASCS

Chain of Glucagon Receptor (P47871 26-477): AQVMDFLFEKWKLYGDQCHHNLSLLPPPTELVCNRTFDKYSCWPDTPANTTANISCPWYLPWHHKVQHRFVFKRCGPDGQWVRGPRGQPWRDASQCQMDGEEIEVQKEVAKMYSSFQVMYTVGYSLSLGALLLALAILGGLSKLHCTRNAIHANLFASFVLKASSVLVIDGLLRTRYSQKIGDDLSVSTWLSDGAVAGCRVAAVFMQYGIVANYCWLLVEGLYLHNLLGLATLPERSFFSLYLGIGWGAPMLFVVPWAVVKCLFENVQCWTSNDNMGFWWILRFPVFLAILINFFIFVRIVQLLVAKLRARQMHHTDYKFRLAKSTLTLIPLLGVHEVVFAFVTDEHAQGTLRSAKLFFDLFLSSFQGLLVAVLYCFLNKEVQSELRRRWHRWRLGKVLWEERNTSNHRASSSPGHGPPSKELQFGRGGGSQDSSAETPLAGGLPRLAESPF

EC50 ([1]; read-out: cAMP Induction Glucagon Receptor EC50, Table 3 (pegylated analogs), HEK293 cells co-transfected with glucagon receptor and CRE-luciferase, 5 h at 37° C.): 0.1 ± 0.05 nM
Substance: Glucagon Cys^24 Maleimido, PEG-3.4K-dimer [Glucagon C24 Dimer]

EC50 [1]: 0.84 ± 0.4 nM
Substance: HSQGTFTSDYSRYLDSRRAKDFVQWLMNT [Glucagon R12 K20]

Substance: Glucagon Cys^17 Mal-PEG-5K [Glucagon, Cys17PEG5K]
Percent Soluble [2]: 94%

EC50 [3]: 0.41 ± 0.24 nM
EC50 [1]: 0.81 ± 0.49 nM
Substance: HSQGTFTSDYSRYLDSRRAQDFVQWLMNK [Glucagon R12 K29]
